Assay results: patent US12522596B2, “Compounds as GLP-1R agonists” (Terns Pharmaceuticals, Inc., priority 2021, dated 2026)

Key:
Format in all cases: in vitro ADME
[1] = Metabolic stability in human hepatocytes; conditions: cryopreserved hepatocytes; human hepatocytes, 1 μM
Experimental: (§1) Test compounds were incubated in rat and human hepatocytes and stability was assessed from the substrate […] approach. Test compounds were dissolved in dimethyl sulfoxide (DMSO) to create a 10 mM Stock, and then further diluted to create a 1000× Working Stock of 1 mM with DMSO in 96-well plates for test compounds and the positive control (midazolam). Vials containing cryopreserved hepatocytes were removed from the liquid nitrogen tank and immediately immersed in a 37° C. water bath. The vials were shaken gently until the contents had thawed and were then immediately emptied into 48 mL of pre-warmed HT Medium in a 50 mL conical tube. Cells remaining in the vial were resuspended with 1.0 mL of pre-warmed HT Medium and added to the conical tube. The tube was capped and then gently inverted several times to resuspend the hepatocytes. The cell suspension was centrifuged at 50×g at room temperature for 5 minutes and the supernatant discarded. The cell pellet was loosened by gently swirling the centrifuge tube and was re-suspended in 4 mL of warm Dulbecco's Modified Eagle medium (DMEM). Cell density was determined by a cell counter by Nexcelom, and DMEM medium was added to obtain a target density of 1×10^6 cells/mL. The assay was carried out in 96-well microtiter plates. Test Compounds were incubated at 1 μM with 1×10^6 cells/mL hepatocytes in DMEM for 0, 30, 60, 120 and 240 minutes. The incubation was carried out with gentle shaking at 37° C. under a humid atmosphere of 95% air/5% CO2. The volume of the incubation mixture was 37 μL with a final 0.1% DMSO. At each of the time points, the incubation was stopped by adding 150 μL quenching solution (100% acetonitrile, 0.1% formic acid containing bucetin as an internal standard for positive ESI mode). Subsequently, the mixtures were vortexed for 20 min and centrifuged at 4,000 RPM at 10° C. The supernatant (80 μL) was transferred to a clean 96-well plate and analyzed by LC-MS/MS. Midazolam at 1 μM with a final 0.1% DMSO was included as a positive control to verify assay performance. The percent parent remaining, intrinsic and predicted hepatic clearance and t1/2 were calculated. All samples were analyzed by LC-MS/MS using an AB Sciex API 4000 instrument, coupled to a Shimadzu LC-20AD LC Pump system. Separation was achieved using a Waters Atlantis T3 dC18 reverse phase HPLC column (20 mm×2.1 mm) at a flow rate of 0.5 mL/min. The mobile phase consisted of 0.1% formic acid in water (solvent A) and 0.1% formic acid in 100% acetonitrile (solvent B). Elution conditions are detailed below.
(§2) The ion optics of each test compound were optimized for their declustering potential (DP), […] (CE), collision-cell exit potential (CXP) and used in a selected ion monitoring experiment in the positive ion mode. The peak area ratio of each test compound to internal standard was then evaluated for stability. The extent of metabolism was calculated based on the disappearance of the test compound, compared to its initial concentration. The initial rates of clearance of the test compound were calculated using the linear regression plot of semi-log % remaining of the compound versus time. The elimination rate constant (k) of the linear regression plot was then used to determine t1/2 and the intrinsic clearance (CLint) using the following formula, where Chepatocyte (million cells/mL) is the cell density of the incubation:
(§3) The predicted hepatic clearance (CLhep) was calculated using the well stirred method with the following formula with CLint(in vivo) normalized based on liver weight: […]
(§4) The relevant physiological parameters of liver weight, blood flow, and hepatocellularity for various species are listed below: […]

[2] = Caco-2 passive permeability and efflux ratio; conditions: human; for efflux ratio at 120 min, 5 μM: pH 7.4, Caco-2, Papp (B-to-A)/Papp (A-to-B), read-out: Efflux Ratio (ER); for Papp at 120 min, 5 μM: Caco-2, 5 μM, pH 7.4, 120 minutes
Experimental: Caco-2 cells (clone C2BBe1) were obtained from American Type Culture Collection (Manassas, VA). Cell monolayers were grown to confluence on collagen-coated, microporous membranes in 12-well assay plates. Details of the plates and their certification are shown below. The permeability assay buffer was Hanks' balanced salt solution containing 10 mM HEPES and 15 mM glucose at a pH of 7.4. The buffer in the receiver chamber also contained 1% bovine serum albumin. The dosing solution concentration was 5 μM of test article in the assay buffer. Cell monolayers were dosed on the apical side (A-to-B) or basolateral side (B-to-A) and incubated at 37° C. with 5% CO2 in a humidified incubator. Samples were taken from the donor and receiver chambers at 120 minutes. Each determination was performed in duplicate. The flux of lucifer yellow was also measured post-experimentally for each monolayer to ensure no damage was inflicted to the cell monolayers during the flux period. All samples were assayed by LC-MS/MS using electrospray ionization. The apparent permeability (Papp) and percent recovery were calculated as follows:
[formula] [formula] where, dCr/dt is the slope of the cumulative receiver concentration versus time in μM s^−1; Vr is the volume of the receiver compartment in cm^3; Vd is the volume of the donor compartment in cm^3; A is the area of the insert (1.13 cm^2 for 12-well); CA is the average of the nominal dosing concentration and the measured 120-minute donor concentration in μM; CN is the nominal concentration of the dosing solution in μM; Cr^final is the cumulative receiver concentration in μM at the end of the incubation period; Cd^final is the concentration of the donor in μM at the end of the incubation period. Efflux ratio (ER) is defined as Papp (B-to-A)/Papp (A-to-B).

[3] = Metabolic stability in rat hepatocytes; conditions: cryopreserved hepatocytes, 1 μM
Experimental: as §1, §2, §3, §4

| CLint scaled at 1 μM [1] | half-life at 1 μM [1] | efflux ratio at 120 min, 5 μM [2] | Papp at 120 min, 5 μM [2] | CLint scaled at 1 μM [3] | half-life at 1 μM [3] | SMILES |
| --- | --- | --- | --- | --- | --- | --- |
| 24.3 ± 0.74 mL/min/kg | 1.66 ± 0.0508 h | 0.975 | 49.9 ×10⁻⁶ cm/s | 36 ± 1.36 mL/min/kg | 1.62 ± 0.0477 h | Cc1ncsc1Cn1c(CN2CCC(c3cccc(OCc4ccc(C#N)cc4F)n3)CC2)nc2ccc(C(=O)O)cc21 [Compound 4] |
| 10.6 ± 0.66 mL/min/kg | 3.82 ± 0.241 h | 9.77 | 2.82 ×10⁻⁶ cm/s | 38.9 ± 1.14 mL/min/kg | 1.49 ± 0.044 h | N#Cc1ccc(COc2ccnc(C3CCN(Cc4nc5ccc(C(=O)O)cc5n4Cc4cncs4)CC3)n2)c(F)c1 [Compound 20] |
| 7.18 ± 0.31 mL/min/kg | 5.58 ± 0.244 h | 2.14 | 9.41 ×10⁻⁶ cm/s | 32.5 ± 0.73 mL/min/kg | 1.71 ± 0.0383 h | N#Cc1ccc(COc2cccc(N3CCN(Cc4nc5ccc(C(=O)O)cc5n4Cc4cncs4)CC3)n2)c(F)c1 [Compound 30] |
| 17.5 ± 1.33 mL/min/kg | 2.29 ± 0.174 h | 1.31 | 16.8 ×10⁻⁶ cm/s | 30.2 ± 1.5 mL/min/kg | 1.83 ± 0.0907 h | CC1(c2ccc(C#N)cc2F)Oc2cccc(C3CCN(Cc4nc5ccc(C(=O)O)cc5n4Cc4cncs4)CC3)c2O1 (centres unmarked) [Compound 31] |

The remaining lines, values behind:

| SMILES | CLint scaled at 1 μM [1] | half-life at 1 μM [1] | efflux ratio at 120 min, 5 μM [2] | Papp at 120 min, 5 μM [2] | CLint scaled at 1 μM [3] | half-life at 1 μM [3] |
| --- | --- | --- | --- | --- | --- | --- |
| N#Cc1ccc(COc2cccc(C3CCN(Cc4nc5ccc(C(=O)O)cc5n4Cc4cncs4)CC3)n2)c(F)c1 [Compound 2] | 15.5 ± 0.82 mL/min/kg | 2.61 ± 0.154 h | 1.66 | 31.5 ×10⁻⁶ cm/s | 42.6 ± 2.46 mL/min/kg | 1.32 ± 0.083 h |
| N#Cc1ccc(COc2cccc(C3CCN(Cc4nc5ccc(C(=O)O)cc5n4C[C@@H]4CCO4)CC3)n2)c(F)c1 [Reference Compound A, reference compound] | 7.18 ± 0.45 mL/min/kg | 5.79 ± 0.379 h |  | 15.5 ×10⁻⁶ cm/s | 48.2 ± 1.33 mL/min/kg | 1.21 ± 0.0425 h |
